Test results as given in US11977068B2, “Method for testing ecotoxicity of disinfection by-products” (priority 2020, dated 2024).

Experiments:
brine shrimp [1] = test: Chronic toxicity test on second-instar brine shrimp (survival/mortality)
Experimental: (§1) S1, anhydrous freeze-dried eggs of a brine shrimp are hatched in artificial seawater to obtain a first-instar brine shrimp, where, a hatching temperature is (26±1)° C., the hatching is performed under a continuous aeration for a hatching time of (10-24) h, and an aeration gas source is air. After the hatching is finished, the first-instar brine shrimp and non-hatched brine shrimp eggs are separated immediately, and the first-instar brine shrimp is placed in the artificial seawater. The brine shrimp at different life stages may have different tolerance to toxicity, and therefore, a separation of the brine shrimp at different instars can avoid the instability of experimental results. S2, the first-instar brine shrimp is cultured in a light incubator for 24 h to obtain a second-instar brine shrimp, where, a culture temperature is (26±1)° C., a light time and a dark time are respectively continuous 12 h, and a light intensity in the light incubator is (1,000-3,000) Lux. S3. First, the second-instar brine shrimp is pre-placed in a water sample to be tested containing toxic substances and exposed for a predetermined time to enable the artificial seawater carried by the second-instar brine shrimp to mix uniformly with the water sample to be tested, and then the second-instar brine shrimp is put into a culture plate containing the water sample to be tested for an acute toxicity test with a time end-point of (42-54) h and a chronic toxicity test with a time end-point of (12-16) days. After the time end-point of the toxicity test is reached, the culture plate is slightly vibrated to observe the survival of the brine shrimp in each well. […] A mortality rate of the brine shrimp is obtained to calculate the toxicity of the water sample to the brine shrimp.
The remaining solution in each brown bottle is poured into a clean 150 mm crystallization dish. […] The culture plate is cultured in light. […] The time difference of transferring brine shrimps within and between groups should be shortened as far as possible to avoid the influence of excessive time difference on brine shrimp growth.

brine shrimp [2] = test: Acute toxicity test on second-instar brine shrimp (survival/mortality); conditions: for minimum effective concentration (defined as the concentration causing 20% death): second-instar brine shrimp
Experimental: as §1
(§2) Hatching of a brine shrimp: 3-5 g of anhydrous freeze-dried eggs of the brine shrimp is put into a 1,500 mL beaker containing 1,200 mL of seawater. The opening of the beaker is sealed with aluminum foil and the beaker is placed in a constant temperature water bath at (26±1)° C. A small air pump is used to blow air for aeration and hatching for 12 h. After the hatching is finished, the first-instar brine shrimp is randomly picked out with a Pasteur pipette immediately and placed in a 150 mm crystallization dish containing sufficient seawater.
(§3) Culture of the brine shrimp: the first-instar brine shrimp is cultured in a light incubator for 24 h. The conditions in the light incubator are as follows: a temperature is (25±1)° C., a light intensity is 1,000 Lux, and a light time and a dark time are respectively continuous 12 h.
(§4) Acute toxicity test: 150 mL of each water sample to be tested is put into a brown bottle, four groups of the water samples with different concentrations of IAM are added into a 12-well culture plate with a pipette, with 2.5 mL of liquid in each well, and each 3 wells is an experimental group with the same concentration of the water samples. The remaining solution in each brown bottle is poured into a clean 150 mm crystallization dish. At least 30 second-instar brine shrimps are transferred into 100-150 mL of the water sample to be tested at one time by the Pasteur pipette in the crystallizing dish, respectively. The second-instar brine shrimps that have been exposed to the solution are transferred by the Pasteur pipette to the culture wells with 10 second-instar brine shrimps in each well. The culture plate is cultured in light. The survival of the brine shrimps in each well is observed after 48 h. The time difference of transferring brine shrimps within and between groups should be shortened as far as possible to avoid the influence of excessive time difference on brine shrimp growth.

[3] = as above; conditions: brine shrimp (Artemia), in vivo, other: immersion in the water sample in culture wells
Experimental: as §1, §2, §3, §4

Compound	mortality rate (brine shrimp [1]; 59.588 μM (acute minimum effective concentration), 16 days exposure)	survival rate of brine shrimp (brine shrimp [1]; 59.588 μM, 16 days exposure)	impact on the survival of brine shrimp in a short period (brine shrimp [2]; 59.588 μM, 54 h)	minimum effective concentration (defined as the concentration causing 20% death) (brine shrimp [2]; 54 h exposure, fitted from FIG. 3 data)	LC50 at 54 h [3]	mortality rate (brine shrimp [1]; 544.5 μM (acute minimum effective concentration), 14 days exposure)	survival rate of brine shrimp (brine shrimp [1]; 544.5 μM, 14 days exposure)	impact on the survival of brine shrimp in a short period (brine shrimp [2]; 544.5 μM, 48 h)	minimum effective concentration (defined as the concentration causing 20% death) (brine shrimp [2]; 48 h exposure, fitted from FIG. 2 data)	LC50 at 48 h [3]
O=C(O)CI [IAA, iodoacetic acid]	100%	0	does not cause significant impact on the survival	59.588 µM	1050 µM	–	–	–	–	–
NC(=O)CI [IAM, iodoacetamide]	–	–	–	–	–	100%	0	does not cause significant impact on the survival	544.5 µM	557 µM
